Active and inactive are the calls of the source. The calls are words filed in the database; no cut-off is given here.

Data set [1] concerns the target T1, Protein mono-ADP-ribosyltransferase PARP11 (Homo sapiens, UniProt Q9NR21).
T1 sequence (Q9NR21 whole entry): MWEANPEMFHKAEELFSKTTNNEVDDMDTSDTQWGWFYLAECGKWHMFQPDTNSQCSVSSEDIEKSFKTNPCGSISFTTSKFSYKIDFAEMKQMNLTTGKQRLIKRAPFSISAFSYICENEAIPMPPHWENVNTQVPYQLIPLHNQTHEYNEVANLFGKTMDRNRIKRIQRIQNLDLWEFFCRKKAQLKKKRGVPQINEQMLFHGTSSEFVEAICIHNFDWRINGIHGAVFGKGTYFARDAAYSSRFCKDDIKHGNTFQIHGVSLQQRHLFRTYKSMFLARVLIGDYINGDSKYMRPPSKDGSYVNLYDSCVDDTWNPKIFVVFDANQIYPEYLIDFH
In words: Inhibition of PARP11 (unknown origin) measured after 1 hr incubation by microplate reader assay.

Data set [2] can be described thus: Permeability across apical to basolateral side in human Caco-2 cells. The class given is ADME, cell-based. Background: Caco-2 cells form a polarised layer with tight junctions and transporters.
The target in a further data set is Cytochrome P450 2D6 (Homo sapiens, UniProt P10635). Kind of data set: Inhibition of CYP2D6 (unknown origin). The class given is ADME.
Cytochrome P450 2D6, sequence (P10635 whole entry): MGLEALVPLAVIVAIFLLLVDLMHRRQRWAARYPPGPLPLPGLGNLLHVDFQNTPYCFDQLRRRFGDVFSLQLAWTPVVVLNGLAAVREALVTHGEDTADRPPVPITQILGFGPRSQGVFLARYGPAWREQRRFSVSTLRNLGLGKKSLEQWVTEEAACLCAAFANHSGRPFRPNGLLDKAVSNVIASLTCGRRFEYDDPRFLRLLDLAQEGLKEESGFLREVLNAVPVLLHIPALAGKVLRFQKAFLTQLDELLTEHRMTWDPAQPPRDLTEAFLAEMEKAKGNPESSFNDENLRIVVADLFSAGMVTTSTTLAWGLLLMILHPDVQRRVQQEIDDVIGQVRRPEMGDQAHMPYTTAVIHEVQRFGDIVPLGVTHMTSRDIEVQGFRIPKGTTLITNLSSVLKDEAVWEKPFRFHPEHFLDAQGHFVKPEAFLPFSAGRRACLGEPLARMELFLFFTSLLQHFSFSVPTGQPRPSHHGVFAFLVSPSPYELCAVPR
The nature of data set [3]: Apparent volume of distribution in ICR mouse at 1 mg/kg, iv measured upto 24 hrs by LC-MS/MS analysis. As to conditions: in vivo, read-out: Vz. In kind it is ADME, organism-based.
A short description of data set [4]: Acute toxicity in ICR mouse assessed as change in body weight at 500 mg/kg, po measured after 7 days. As to conditions: in vivo, 168 h, time 7 day. In kind it is organism-based.
Data set [5] can be described thus: Acute toxicity in ICR mouse assessed as change in body weight at 1000 mg/kg, po measured after 7 days. The settings on record: in vivo, 168 h, time 7 day. The class given is organism-based.
For data set [6], the system named is CT26. Kind of data set: Antitumor activity in immunocompetent mouse CT26 cell bearing mouse model assessed as tumor growth inhibition at 12.5 mg/kg, IG treated twice a day measured after 14 days relative to control. In kind it is functional. The settings on record: CT26, po, 336 h, time 14 day, read-out: TGI.
The subject of data set [7] is CT26. In words: Antitumor activity in immunocompetent mouse CT26 cell bearing mouse model assessed as tumor growth inhibition at 25 mg/kg, IG treated twice a day measured after 14 days relative to control. In kind it is functional. The settings on record: CT26, po, 336 h, time 14 day, read-out: TGI.
Data set [8] can be described thus: Toxicity in Balb/c mouse bearing mouse CT26 cells assessed as morphological changes in spleen at 6.25 to 25 mg/kg, IG measured after 14 days by hematoxylin and eosin staining based assay. The class given is organism-based. The settings on record: in vivo, po, 336 h, dose 6.25-25 mg/kg, time 14 day.
Data set [9] is described as follows: Toxicity in Balb/c mouse bearing mouse CT26 cells assessed as morphological changes in kidney at 6.25 to 25 mg/kg, IG measured after 14 days by hematoxylin and eosin staining based assay. In kind it is organism-based. As to conditions: in vivo, po, 336 h, dose 6.25-25 mg/kg, time 14 day.
Data set [10] in a line: Toxicity in Balb/c mouse bearing mouse CT26 cells assessed as body weight change at 6.25 to 25 mg/kg, IG measured after 14 days. In kind it is organism-based. As to conditions: in vivo, po, 336 h, dose 6.25-25 mg/kg, time 14 day.
Data set [11] relates to CT26. Kind of data set: Antitumor activity in immunocompetent mouse CT26 cell bearing Balb/c mouse model assessed as reduction in Ki-67 protein expression level in tumor tissue at 6.25 to 25 mg/kg, IG treated twice a day measured after 14 days. The class given is functional, organism-based. The settings on record: dose lower 6.25 mg/kg, dose upper […], time 14.0 day.
Data set [12] relates to CT26. In words: Antitumor activity against mouse CT26 cells implanted in immunodeficient Balb/c mouse assessed as inhibition of tumor growth at 25 mg/kg, IG twice daily measured after 10 days relative to control. The settings on record: CT26, po, 240 h, time 10 day, read-out: TGI. In kind it is functional.
Data set [13] concerns CT26. In words: cells. The settings on record: Mus musculus, CT26, 144 h.

Take `C[C@@H](C(=O)N1CCN(c2ncc(C(F)(F)F)cn2)CC1)n1cc2cccc(C(N)=O)c2n1`: the IC50 – broadly, the midpoint of a concentration-inhibition curve – in data set [1] was over 5 µM; on Cytochrome P450 2D6, over 30 µM; with CT26 [13], 16.2 µM. For the same compound, in data set [2], the Papp A→B (usually the apparent permeability from the apical to the basolateral side of a cell layer) stood at 25.7 ×10⁻⁶ cm/s. For the same compound, in data set [3], the Vd turned out to be 0.978 L/kg. Moreover, the Activity entry in [4], in data set [5], in [8], in data set [9] and in data set [10] was “Non-Toxic” throughout. Also, the inhibition in vivo at 12.5 mg/kg in the data set on CT26 [6] came to 53%. The inhibition in vivo at 25 mg/kg in the data set on CT26 [7] worked out at 83%; with CT26 [12], 4%. Also, the result with CT26 [11] was Active.

(Values after ChEMBL document CHEMBL5537136 (J Med Chem, 2024).)
